Data published in patent US11414431B2, “Substituted pyrazolo[1,5-a]pyrimidines as TYK2 inhibitors” (Nimbus Lakshmi, Inc., priority 2018, dated 2022).

System: IL-12 induced STAT4 phosphorlyation mediated by TYK2/JAK2
Assay: IL-12 Induced pSTAT4 in Human PBMC
Format: cell-based
Conditions: 1.7 ng/mL IL-12 for 30 minutes
Description: Human PBMC were isolated from buffy coat and are stored frozen for assays as needed. […] 15 μL of compound or DMSO was added to the well at the desired concentrations and incubated at 1 hr at 37° C. 15 μL of stimulus (final concentration of 1.7 ng/mL IL-12) was added for 30 minutes prior to pSTAT4 and total STAT4 analysis using cell lysates prepared and analyzed by MSD reagents as per manufacturer protocol. The final DMSO concentration of compound in the assay was 0.1%.
The IL-12 induced pSTAT4 assay evaluates the inhibition of IL-12 induced STAT4 phosphorlyation mediated by TYK2/JAK2 (heterpdimeric complex).

## CNc1cc(Nc2cccn(C3CCOCC3)c2=O)nc2c(C(=O)N[C@@H]3CC[C@]3(O)C(F)(F)F)cnn12 [Compound I-976]
  IC50: 0.1 to 0.5 µM

## CNc1cc(-c2cn([C@H]3CCN(C)C3)c3ncccc23)nc2c(C(=O)N[C@H]3CC[C@@H]3OC)cnn12 [Compound I-619]
  IC50: < 0.1 µM

## CNc1cc(Nc2cccn(C3CCOCC3)c2=O)nc2c(C(=O)NC3CC[C@@H]3F)cnn12 (some centres unmarked) [Compound I-188]
  IC50: < 0.1 µM

## CNc1cc(Nc2cccn([C@@H]3CCOC[C@@H]3OC)c2=O)nc2c(C(=O)NC3CCC3(F)F)cnn12 (some centres unmarked) [Compound I-336]
  IC50: < 0.1 µM

## CNc1cc(-c2cn([C@H]3CCC4(C3)OCCO4)c3ncccc23)nc2c(C(=O)N[C@H]3CC[C@@H]3OC)cnn12 [Compound I-808]
  IC50: < 0.1 µM

## CNc1cc(-c2cn([C@H]3COC[C@@H]3OC)c3ccccc23)nc2c(C(=O)N[C@H]3CC[C@@H]3OC)cnn12 [Compound I-742]
  IC50: < 0.1 µM

## CNc1cc(Nc2cccn(C3CCN(CCF)CC3)c2=O)nc2c(C(=O)N[C@H]3CC[C@@H]3F)cnn12 [Compound I-237]
  IC50: < 0.1 µM

## CNc1cc(Nc2cccn([C@H]3C[C@@H]3F)c2=O)nc2c(C(=O)N[C@@H]3CCC3(F)F)cnn12 [Compound I-279]
  IC50: < 0.1 µM

## CNc1cc(Nc2cccn(C3CCOCC3)c2=O)nc2c(C(=O)N[C@@H]3CCC3(F)F)cnn12 [Compound I-311]
  IC50: < 0.1 µM

## CNc1cc(Nc2cccn([C@H]3CC[C@H]3O)c2=O)nc2c(C(=O)NC3CC[C@@H]3F)cnn12 (some centres unmarked) [Compound I-167]
  IC50: < 0.1 µM

## CNc1cc(Nc2cccn([C@H]3[C@@H]4COC[C@@H]43)c2=O)nc2c(C(=O)NC3CC[C@H]3F)cnn12 (some centres unmarked) [Compound I-203]
  IC50: < 0.1 µM

## CNc1cc(Nc2cccn(C3COC3)c2=O)nc2c(C(=O)N[C@@H]3C[C@@H]3F)cnn12 [Compound I-125]
  IC50: < 0.1 µM

## CNc1cc(-c2cn([C@H]3CC3(F)F)c3ncccc23)nc2c(C(=O)N[C@H]3CC[C@H]3O)cnn12 [Compound I-552]
  IC50: < 0.1 µM

## CNc1cc(Nc2cccn([C@H]3CC[C@@H]3O)c2=O)nc2c(C(=O)N[C@@H]3CC[C@@]3(C)OC)cnn12 [Compound I-377]
  IC50: < 0.1 µM

## CNc1ccc(-c2cc(NC)n3ncc(C(=O)NC4CC[C@H]4F)c3n2)n2ccnc12 (some centres unmarked) [Compound I-483]
  IC50: < 0.1 µM

## CNc1cc(Nc2cccn([C@H]3C[C@@H](OC)C3)c2=O)nc2c(C(=O)NC3CCC3(F)F)cnn12 (some centres unmarked) [Compound I-295]
  IC50: < 0.1 µM

## CNc1cc(-c2cn([C@@H]3COC[C@H]3OC)c3ncccc23)nc2c(C(=O)N[C@@H]3CC[C@@H]3O)cnn12 [Compound I-583]
  IC50: 0.1 to 0.5 µM

## CNc1cc(Nc2cccn([C@H]3CCC[C@H](OC)C3)c2=O)nc2c(C(=O)NC3CC[C@@H]3F)cnn12 (some centres unmarked) [Compound I-230]
  IC50: < 0.1 µM

## CNc1cc(-c2cn([C@H]3COC[C@H]3F)c3ncccc23)nc2c(C(=O)NC3CC[C@@H]3OC)cnn12 (stereo partly drawn) [Compound I-624, 5-(1-((3S,4S)-4-Fluorotetrahydrofuran-3-yl)-1H-pyrrolo[2,3-b]pyridin-3-yl)-N-((trans-1,2)-2-methoxycyclobutyl)-7-(methylamino)pyrazolo[1,5-a]pyrimidine-3-carboxamide]
0.5 h
  IC50: < 0.1 µM

## CNc1cc(-c2cn([C@@H]3CC(=O)N(C4CCOCC4)C3)c3ncccc23)nc2c(C(=O)NC3CC[C@@H]3OC)cnn12 (stereo partly drawn) [Compound I-1026, N-(2-methoxycyclobutyl)-7-(methylamino)-5-(1-((R)-5-oxo-1-(tetrahydro-2H-pyran-4-yl)pyrrolidin-3-yl)-1H-pyrrolo[2,3-b]pyridin-3-yl)pyrazolo[1,5-a]pyrimidine-3-carboxamide]
0.5 h
  IC50: 0.1 to 0.5 µM

## CNc1cc(-c2cn([C@@H]3COC[C@H]3OC)c3ncccc23)nc2c(C(=O)NC3CC[C@H]3O)cnn12 (some centres unmarked) [Compound I-587]
  IC50: 0.5 to 1 µM

## CNc1cc(Nc2cccn([C@H]3[C@@H]4COC[C@@H]43)c2=O)nc2c(C(=O)N[C@@H]3CC[C@@H]3F)cnn12 [Compound I-205]
  IC50: < 0.1 µM

## O=C(N[C@H]1CCC1(F)F)c1cnn2c3c(c(-c4cn([C@H]5C[C@H](O)C5)c5ncccc45)nc12)OCCN3 [Compound I-776]
  IC50: < 0.1 µM
